Results reported in publication PMC10937238 (Saudi Pharmaceutical Journal : SPJ, 2024).

Columns and labels:
[1] = biological target: T1, MERS-CoV PLpro (Human betacoronavirus 2c EMC/2012, UniProt K0BWD0); assay type: binding
[2] = biological target: T1, MERS-CoV PLpro; assay: biochemical; assay type: binding; conditions: read-out: SA (111.5 μM)
[3] = biological target: T1, MERS-CoV PLpro; assay: biochemical

COc1ccc2c(c1)c(CC(=O)O)c(C)n2C(=O)c1ccc(Cl)cc1 [Indomethacin]
Indomethacin (279.5 μM) [1]: 1.44 °C

COc1cc(/C=C/C(=O)O)cc(OC)c1O [sinapic acid]
ΔTm at 111.5 µM [2]: 18.4 °C
IC50 [3]: 68.6 µM
